ChEMBL document CHEMBL4145597, “BMS-986163, a Negative Allosteric Modulator of GluN2B with Potential Utility in Major Depressive Disorder” (ACS Med Chem Lett, 2018)
Calls of active or inactive are those of the source. The calls are words filed in the database; no cut-off is given here.

Columns and labels:
[1] = target: Glutamate receptor ionotropic, NMDA 2D (Homo sapiens) (UniProt O15399); test: Negative allosteric modulation of human GluN2D receptor expressed in Xenopus laevis oocytes assessed as inhibition of glutamate/glycine-induced channel current at 3 uM after 10 to 15 mins by two electrode voltage clamp based electrophysiology assay; assay type: cell-based
Glutamate receptor ionotropic, NMDA 2D (Homo sapiens), sequence (O15399 whole entry): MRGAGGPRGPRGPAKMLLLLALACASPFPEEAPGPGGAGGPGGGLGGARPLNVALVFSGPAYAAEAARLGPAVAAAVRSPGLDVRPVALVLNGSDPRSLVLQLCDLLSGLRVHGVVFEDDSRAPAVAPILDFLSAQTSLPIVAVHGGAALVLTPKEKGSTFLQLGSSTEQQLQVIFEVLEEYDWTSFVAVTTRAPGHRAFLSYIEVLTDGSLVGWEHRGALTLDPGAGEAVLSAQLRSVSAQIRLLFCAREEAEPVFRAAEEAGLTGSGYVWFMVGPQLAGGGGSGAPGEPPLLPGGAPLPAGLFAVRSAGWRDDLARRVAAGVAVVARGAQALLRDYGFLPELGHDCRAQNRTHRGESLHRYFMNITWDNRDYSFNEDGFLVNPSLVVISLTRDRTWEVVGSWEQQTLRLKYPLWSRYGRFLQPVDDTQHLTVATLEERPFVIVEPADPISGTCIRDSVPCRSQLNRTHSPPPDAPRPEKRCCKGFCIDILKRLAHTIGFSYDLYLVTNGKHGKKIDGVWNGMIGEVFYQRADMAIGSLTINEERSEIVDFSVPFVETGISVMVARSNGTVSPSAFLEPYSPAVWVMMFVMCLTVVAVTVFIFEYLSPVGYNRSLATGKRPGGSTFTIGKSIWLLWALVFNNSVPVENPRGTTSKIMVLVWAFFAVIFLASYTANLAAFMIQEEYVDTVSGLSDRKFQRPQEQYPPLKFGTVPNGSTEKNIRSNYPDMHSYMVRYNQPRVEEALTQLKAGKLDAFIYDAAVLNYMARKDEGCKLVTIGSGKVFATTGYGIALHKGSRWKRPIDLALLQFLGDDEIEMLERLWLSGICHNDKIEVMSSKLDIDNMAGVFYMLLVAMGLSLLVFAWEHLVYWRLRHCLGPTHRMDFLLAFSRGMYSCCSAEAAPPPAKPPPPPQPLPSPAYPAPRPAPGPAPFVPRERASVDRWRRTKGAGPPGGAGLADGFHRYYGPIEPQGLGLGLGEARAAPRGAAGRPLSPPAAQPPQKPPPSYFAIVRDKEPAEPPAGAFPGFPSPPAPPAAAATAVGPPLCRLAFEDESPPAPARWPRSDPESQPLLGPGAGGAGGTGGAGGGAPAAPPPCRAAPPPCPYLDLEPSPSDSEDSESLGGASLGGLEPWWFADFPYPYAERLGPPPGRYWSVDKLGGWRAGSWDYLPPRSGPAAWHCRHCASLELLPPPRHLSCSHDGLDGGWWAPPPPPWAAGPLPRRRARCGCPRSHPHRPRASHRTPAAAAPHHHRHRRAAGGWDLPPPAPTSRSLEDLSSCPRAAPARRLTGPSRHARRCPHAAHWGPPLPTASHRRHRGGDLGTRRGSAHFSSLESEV

[2] = target: Glutamate receptor ionotropic, NMDA 2B (Homo sapiens, UniProt Q13224); test: (§1) Negative allosteric modulation of human GluN2B receptor expressed in Xenopus laevis oocytes assessed as inhibition of glutamate/glycine-induced channel current after 15 to 20 mins by two electrode voltage clamp based electrophysiology assay; assay type: cell-based
Glutamate receptor ionotropic, NMDA 2B (Homo sapiens, UniProt Q13224), sequence (Q13224 27-1484 limits assumed): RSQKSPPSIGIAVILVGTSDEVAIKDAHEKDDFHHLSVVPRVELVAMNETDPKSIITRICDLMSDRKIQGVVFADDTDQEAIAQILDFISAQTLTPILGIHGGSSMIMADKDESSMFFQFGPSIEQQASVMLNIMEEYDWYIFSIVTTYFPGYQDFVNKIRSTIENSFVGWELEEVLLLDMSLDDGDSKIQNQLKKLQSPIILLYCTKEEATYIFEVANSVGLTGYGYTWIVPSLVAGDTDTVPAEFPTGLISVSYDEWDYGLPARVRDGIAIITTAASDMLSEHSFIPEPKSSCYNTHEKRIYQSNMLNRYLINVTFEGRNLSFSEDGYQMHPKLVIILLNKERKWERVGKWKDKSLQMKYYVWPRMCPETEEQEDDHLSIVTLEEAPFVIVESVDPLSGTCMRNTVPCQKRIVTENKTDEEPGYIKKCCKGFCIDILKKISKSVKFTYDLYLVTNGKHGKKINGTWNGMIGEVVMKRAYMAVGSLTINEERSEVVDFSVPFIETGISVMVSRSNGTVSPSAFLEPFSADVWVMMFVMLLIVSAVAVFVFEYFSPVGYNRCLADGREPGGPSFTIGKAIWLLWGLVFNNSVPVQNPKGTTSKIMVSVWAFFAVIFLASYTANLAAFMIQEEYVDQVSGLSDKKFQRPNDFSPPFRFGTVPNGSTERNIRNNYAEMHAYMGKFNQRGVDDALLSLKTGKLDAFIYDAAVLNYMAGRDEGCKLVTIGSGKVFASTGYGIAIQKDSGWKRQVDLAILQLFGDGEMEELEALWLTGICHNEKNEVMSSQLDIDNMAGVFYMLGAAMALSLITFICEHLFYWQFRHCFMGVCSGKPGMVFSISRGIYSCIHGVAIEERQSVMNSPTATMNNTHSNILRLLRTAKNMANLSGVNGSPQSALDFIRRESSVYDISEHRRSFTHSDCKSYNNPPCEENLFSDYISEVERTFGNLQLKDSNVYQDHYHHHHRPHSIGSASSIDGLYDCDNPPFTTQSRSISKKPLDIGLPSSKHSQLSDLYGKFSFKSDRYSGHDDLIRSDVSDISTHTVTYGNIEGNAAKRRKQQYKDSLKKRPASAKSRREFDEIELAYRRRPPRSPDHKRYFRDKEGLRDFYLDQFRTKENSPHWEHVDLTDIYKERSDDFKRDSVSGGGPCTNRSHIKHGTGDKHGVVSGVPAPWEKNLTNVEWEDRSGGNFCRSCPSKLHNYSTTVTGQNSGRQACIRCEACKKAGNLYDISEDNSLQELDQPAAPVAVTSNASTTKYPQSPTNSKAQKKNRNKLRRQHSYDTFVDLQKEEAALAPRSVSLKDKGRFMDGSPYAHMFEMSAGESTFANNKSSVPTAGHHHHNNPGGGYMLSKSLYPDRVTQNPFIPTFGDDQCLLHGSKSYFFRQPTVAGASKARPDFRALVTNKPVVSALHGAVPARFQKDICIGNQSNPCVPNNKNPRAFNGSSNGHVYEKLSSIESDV

[3] = target: Glutamate receptor ionotropic, NMDA 2A (Homo sapiens) (UniProt Q12879); test: Negative allosteric modulation of human GluN2A receptor expressed in Xenopus laevis oocytes assessed as inhibition of glutamate/glycine-induced channel current at 3 uM after 10 to 15 mins by two electrode voltage clamp based electrophysiology assay; assay type: cell-based
[4] = target: Glutamate receptor ionotropic, NMDA 2C (Homo sapiens) (UniProt Q14957); test: Negative allosteric modulation of human GluN2C receptor expressed in Xenopus laevis oocytes assessed as inhibition of glutamate/glycine-induced channel current at 3 uM after 10 to 15 mins by two electrode voltage clamp based electrophysiology assay; assay type: cell-based
[5] = Plasma concentration in CD-1 mouse at 0.3 mg/kg, iv; assay type: ADME, organism-based; conditions: in vivo
[6] = Fraction unbound in rat plasma; assay type: ADME, cell-free
Mus musculus [7] = test: Ex vivo receptor occupancy at GluN2B receptor in CD-1 mouse forebrain membranes assessed as reduction in [3H]Ro 25-6981 receptor labeling at 0.3 mg/kg, iv incubated for 5 mins by topcount micro scintillation counting method; assay type: functional
[8] = Fraction unbound in mouse plasma; assay type: ADME, cell-free
Mus musculus [9] = test: Antidepressant activity in CD-1 mouse assessed as decrease in immobility time administered iv 15 mins prior to test measured for 6 mins observation by forced swim test; assay type: functional
[10] = Fraction unbound in human plasma; assay type: ADME, cell-free
[11] = target: Voltage-gated inwardly rectifying potassium channel KCNH2 (Homo sapiens, UniProt Q12809); test: Inhibition of human ERG expressed in HEK293 cells assessed as reduction in peak tail current after 2 to 5 mins by patch clamp based electrophysiology assay; assay type: cell-based
Voltage-gated inwardly rectifying potassium channel KCNH2, sequence (Q12809 whole entry): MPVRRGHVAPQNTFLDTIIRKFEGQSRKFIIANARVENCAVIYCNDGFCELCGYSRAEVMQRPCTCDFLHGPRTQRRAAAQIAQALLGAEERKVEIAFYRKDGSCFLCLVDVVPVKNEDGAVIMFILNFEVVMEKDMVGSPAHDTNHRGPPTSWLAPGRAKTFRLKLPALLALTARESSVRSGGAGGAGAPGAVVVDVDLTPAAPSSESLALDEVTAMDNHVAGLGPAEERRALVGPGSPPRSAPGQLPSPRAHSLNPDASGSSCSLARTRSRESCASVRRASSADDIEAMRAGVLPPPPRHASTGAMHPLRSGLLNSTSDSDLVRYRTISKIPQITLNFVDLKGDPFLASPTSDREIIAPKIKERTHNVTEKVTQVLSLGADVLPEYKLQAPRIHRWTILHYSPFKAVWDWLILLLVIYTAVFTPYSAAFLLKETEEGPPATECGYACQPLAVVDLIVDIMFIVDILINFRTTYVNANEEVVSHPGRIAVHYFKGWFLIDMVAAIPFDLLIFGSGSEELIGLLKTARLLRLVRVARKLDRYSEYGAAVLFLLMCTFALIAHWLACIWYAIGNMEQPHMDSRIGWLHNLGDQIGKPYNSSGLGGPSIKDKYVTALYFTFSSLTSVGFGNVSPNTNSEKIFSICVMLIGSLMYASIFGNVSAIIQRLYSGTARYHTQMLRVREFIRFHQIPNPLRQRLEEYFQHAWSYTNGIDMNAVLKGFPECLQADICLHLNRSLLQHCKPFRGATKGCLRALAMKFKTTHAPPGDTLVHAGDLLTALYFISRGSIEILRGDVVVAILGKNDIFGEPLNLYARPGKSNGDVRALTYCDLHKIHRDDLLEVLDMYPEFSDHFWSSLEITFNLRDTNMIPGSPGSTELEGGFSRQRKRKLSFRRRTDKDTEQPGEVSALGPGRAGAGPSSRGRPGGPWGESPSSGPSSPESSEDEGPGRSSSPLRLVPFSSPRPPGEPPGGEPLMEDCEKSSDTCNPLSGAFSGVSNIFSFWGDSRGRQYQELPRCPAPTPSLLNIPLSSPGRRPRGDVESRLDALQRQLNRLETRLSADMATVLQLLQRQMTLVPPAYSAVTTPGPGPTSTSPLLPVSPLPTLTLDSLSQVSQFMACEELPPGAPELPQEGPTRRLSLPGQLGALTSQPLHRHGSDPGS

[12] = target: Glutamate receptor ionotropic, NMDA 2B (Homo sapiens, UniProt Q05586+Q13224); test: as §1; assay type: cell-based
Mus musculus [13] = test: Ex vivo receptor occupancy at GluN2B receptor in CD-1 mouse forebrain membranes assessed as reduction in [3H]Ro 25-6981 receptor labeling at 1 mg/kg, iv incubated for 5 mins by topcount micro scintillation counting method; assay type: functional
Mus musculus [14] = test: Ex vivo receptor occupancy at GluN2B receptor in CD-1 mouse forebrain membranes assessed as reduction in [3H]Ro 25-6981 receptor labeling administered iv incubated for 5 mins by topcount micro scintillation counting method; assay type: functional, organism-based; conditions: Membrane
[15] = Dissociation constant, pKa of the compound by spectrophotometric method; assay type: physicochemical
[16] = target: Glutamate receptor ionotropic, NMDA 2B (Rattus norvegicus, UniProt Q00960); test: Displacement of [3H]Ro 25-6981 from GluN2B receptor in Sprague-Dawley rat forebrain membranes incubated for 1 hr by topcount micro scintillation counting method; design: species or system Membrane
Mus musculus [17] = test: Ex vivo receptor occupancy at GluN2B receptor in CD-1 mouse forebrain membranes assessed as reduction in [3H]Ro 25-6981 receptor labeling at 0.1 to 1 mg/kg, iv incubated for 5 mins by topcount micro scintillation counting method; assay type: functional
[18] = Plasma concentration in CD-1 mouse at 0.1 to 1 mg/kg, iv; assay type: ADME, organism-based; conditions: in vivo
[19] = Plasma concentration in CD-1 mouse at 1 mg/kg, iv; assay type: ADME, organism-based; conditions: in vivo
Mus musculus [20] = test: Ex vivo receptor occupancy at GluN2B receptor in CD-1 mouse forebrain membranes assessed as reduction in [3H]Ro 25-6981 receptor labeling at 3 mg/kg, iv incubated for 5 mins by topcount micro scintillation counting method; assay type: functional

With `O=C1NCC[C@H]1N1CC[C@@H](c2ccc(O)cc2)[C@H](F)C1` the inhibition [1] was “inactive”, the inhibition [2] was “inactive” and the inhibition [3] was “inactive”. For the same compound, the inhibition [4] was “inactive”.
Compound `O=C1[C@H](N2CCC(c3ccc(O)cc3)CC2)CCN1Cc1ccc(F)cc1` has a concentration [5] of 70 nM, a fraction unbound [6] of 0.11 and an Occ (Mus musculus [7]) of 60%. For the same compound, the fraction unbound [8] was 0.12, the Activity (Mus musculus [9]) was “Dose-dependent effect” and the minimal effective dose (Mus musculus [9]; CD-1, iv, read-out: MED) was 0.56 mg/kg. The fraction unbound [10] was 0.1, the IC50 [11] was 620 nM and the IC50 [12] was 4.2 nM. The Occ (Mus musculus [13]) was 95%, the Activity (Mus musculus [14]) was “Dose-dependent effect” and the pKa [15] was 6.8. The Ki [16] was 1.4 nM, the Occ (Mus musculus [17]) was 75% and the concentration [18] was 150 nM. It also gave a concentration [19] of 340 nM.
In the case of `Cc1ccc(CN2CC[C@@H](N3CCC(c4ccc(O)cc4)C(F)(F)C3)C2=O)cc1` (some centres undefined), the Occ (Mus musculus [20]) is reported as 93%, the IC50 [11] is reported as over 30000 nM and the concentration [18] is reported as 2500 nM.
In the case of `Cc1ccc(CN2CC[C@@H](N3CC[C@H](c4ccc(O)cc4)[C@@H](F)C3)C2=O)cc1`, the Occ (Mus musculus [20]) is reported as 87%, the IC50 [11] is reported as over 30000 nM and the concentration [18] is reported as 710 nM.
Compound `Cc1ccc(CN2CC[C@@H](N3CC[C@H](c4ccc(O)cc4)[C@H](F)C3)C2=O)cc1` has an Occ (Mus musculus [20]) of 95%, an IC50 [11] of 7800 nM and a concentration [18] of 590 nM.
